Assay results taken from ChEMBL document CHEMBL1201862, “PubChem BioAssay data set” (2004).
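The compound was tested at five concentrations on cells cultured in 96-well plates, with a 48-hour exposure period. GI50 marks 50% less growth.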 Active and inactive are the calls of the source. No stated cut-off is given here; in the data, active = GI50 up to about 1.1 µM and inactive = higher.

Experiments:
Assay in all cases: NCI-60 cell line screen, 48 h
BT-549 = tested on: BT-549
COLO 205 = tested on: COLO 205
EKVX = tested on: EKVX
HOP-62 = tested on: HOP-62
HOP-92 = tested on: HOP-92
K562 = tested on: K562
MDA-N = tested on: MDA-N
Malme-3M = tested on: Malme-3M
NCI-H226 = tested on: NCI-H226
NCI-H460 = tested on: NCI-H460
NCI-H522 = tested on: NCI-H522
OVCAR-3 = tested on: OVCAR-3
OVCAR-5 = tested on: OVCAR-5
RPMI-8226 = tested on: RPMI-8226
SK-MEL-28 = tested on: SK-MEL-28
SK-MEL-2 = tested on: SK-MEL-2
SK-OV-3 = tested on: SK-OV-3
SR = tested on: SR
UACC-62 = tested on: UACC-62
CCRF-CEM = tested on: CCRF-CEM

Measured: GI50

C=CCSc1nc2c(N)ncnc2n1C1OC(CO)C(O)C1O (stereo unspecified)
inactive: BT-549 > 100 µM | COLO 205 > 100 µM | EKVX > 100 µM | HOP-62 > 100 µM | HOP-92 > 100 µM | K562 > 100 µM | MDA-N > 100 µM | Malme-3M > 100 µM | NCI-H226 > 100 µM | NCI-H460 > 100 µM | NCI-H522 > 100 µM | OVCAR-3 > 100 µM | OVCAR-5 > 100 µM | RPMI-8226 > 100 µM | SK-MEL-28 > 100 µM | SK-MEL-2 > 100 µM | SK-OV-3 > 100 µM | SR > 100 µM | UACC-62 > 100 µM

CC(=O)Oc1ccc2c(c1)CC[C@@H]1C2CC[C@]2(C)C(=O)NC(=O)CC12 (stereo partly specified)
inactive: BT-549 > 100 µM | CCRF-CEM > 100 µM | COLO 205 > 100 µM | EKVX 23.9 µM | HOP-62 > 100 µM | HOP-92 > 100 µM | K562 > 100 µM | MDA-N > 100 µM | Malme-3M > 100 µM | NCI-H226 > 100 µM | NCI-H460 > 100 µM | NCI-H522 > 100 µM | OVCAR-3 > 100 µM | OVCAR-5 > 100 µM | SK-MEL-28 > 100 µM | SK-OV-3 > 100 µM | SR 91.4 µM | UACC-62 > 100 µM

CNC(=O)c1cc(NC(=O)N(CCC#N)CCN(C(=O)N[C@@H](Cc2ccccc2)C(=O)N[C@@H](CC(C)C)C(=O)NC)c2ccccc2)ccc1OC
inactive: BT-549 > 69.5 µM | CCRF-CEM > 66.1 µM | COLO 205 > 100 µM | EKVX > 100 µM | HOP-62 > 100 µM | HOP-92 20.9 µM | MDA-N > 100 µM | Malme-3M 17.3 µM | NCI-H226 > 100 µM | NCI-H460 15.8 µM | OVCAR-3 > 65.8 µM | OVCAR-5 > 100 µM | RPMI-8226 56.8 µM | SK-MEL-28 29.3 µM | SK-MEL-2 31.8 µM | SK-OV-3 > 100 µM | SR 21 µM | UACC-62 23.2 µM

N#CCCN(CCC#N)c1ccc(C(=N/c2ccc(F)cc2)/N=N/c2ccc(Cl)cc2)cc1
inactive: BT-549 > 100 µM | CCRF-CEM > 100 µM | COLO 205 > 100 µM | EKVX > 100 µM | HOP-62 > 100 µM | HOP-92 > 100 µM | K562 > 100 µM | MDA-N > 100 µM | NCI-H226 > 100 µM | NCI-H460 > 100 µM | NCI-H522 > 100 µM | OVCAR-3 > 100 µM | OVCAR-5 > 100 µM | RPMI-8226 > 100 µM | SK-MEL-28 > 100 µM | SK-OV-3 > 100 µM | SR > 100 µM | UACC-62 > 100 µM

O=C1Nc2ccccc2S/C1=C\c1ccc(C(F)(F)F)cc1
inactive: BT-549 > 100 µM | COLO 205 > 100 µM | EKVX 55.1 µM | HOP-62 > 100 µM | HOP-92 > 100 µM | K562 > 100 µM | MDA-N > 100 µM | Malme-3M > 100 µM | NCI-H226 > 100 µM | NCI-H460 > 100 µM | NCI-H522 > 100 µM | OVCAR-3 > 100 µM | OVCAR-5 > 100 µM | RPMI-8226 > 100 µM | SK-MEL-28 > 100 µM | SK-MEL-2 > 100 µM | SK-OV-3 > 100 µM | SR > 100 µM | UACC-62 > 100 µM

O=C1NC(=O)c2ccccc2/C1=C/c1ccc2c(c1)OCO2
inactive: BT-549 20.9 µM | CCRF-CEM 5.92 µM | COLO 205 > 10 µM | EKVX 51.1 µM | HOP-62 11.2 µM | HOP-92 27.1 µM | MDA-N 26 µM | Malme-3M 31.3 µM | NCI-H226 27.9 µM | NCI-H522 31.3 µM | OVCAR-3 5.37 µM | OVCAR-5 29.2 µM | RPMI-8226 19.3 µM | SK-MEL-2 24.6 µM | SK-OV-3 27.3 µM | SR 36 µM | UACC-62 22.1 µM

N#Cc1c(-c2ccc([N+](=O)[O-])cc2)c2c([nH]c1=O)-c1ccccc1CCC2
inactive: BT-549 24.9 µM | COLO 205 83.9 µM | EKVX > 100 µM | HOP-62 40.5 µM | HOP-92 1.48 µM | K562 36.7 µM | MDA-N 94.2 µM | Malme-3M 56.6 µM | NCI-H226 44 µM | NCI-H460 51.1 µM | NCI-H522 41.5 µM | OVCAR-3 31.8 µM | OVCAR-5 > 100 µM | RPMI-8226 30.8 µM | SK-MEL-28 47.9 µM | SK-MEL-2 97.9 µM | SK-OV-3 > 100 µM | SR 29.6 µM | UACC-62 28.1 µM

Cc1ccc(S(=O)(=O)C2=C([Si](C)(C)C)C3CC2[C@@H]2C4C=CC(CC4)[C@H]32)cc1 (stereo partly specified)
inactive: BT-549 > 100 µM | COLO 205 > 100 µM | EKVX > 100 µM | HOP-62 40.8 µM | HOP-92 60.7 µM | K562 > 100 µM | MDA-N > 100 µM | Malme-3M > 100 µM | NCI-H226 95.3 µM | NCI-H460 86.1 µM | NCI-H522 51.9 µM | OVCAR-3 93.8 µM | OVCAR-5 > 100 µM | SK-MEL-28 > 100 µM | SK-MEL-2 23.3 µM | SK-OV-3 45.1 µM | SR > 100 µM | UACC-62 60.5 µM

COC(=O)NC(C(F)(F)F)(C(F)(F)F)P1(=O)OCCCO1
inactive: BT-549 22.1 µM | CCRF-CEM 12.6 µM | COLO 205 23 µM | HOP-62 21.6 µM | HOP-92 35.8 µM | K562 22.9 µM | MDA-N 23.2 µM | NCI-H226 16.2 µM | NCI-H460 30.2 µM | NCI-H522 14.5 µM | OVCAR-3 28.3 µM | OVCAR-5 26.1 µM | RPMI-8226 18.1 µM | SK-MEL-28 35.6 µM | SK-OV-3 18.9 µM | SR 20.7 µM | UACC-62 15 µM

C=CCSC1=N/C(=C\c2ccc(OC)cc2)C(=O)N1CC=C
inactive: BT-549 27 µM | CCRF-CEM 16.6 µM | COLO 205 20.4 µM | EKVX 19.7 µM | HOP-62 74.6 µM | HOP-92 28.8 µM | K562 23.7 µM | MDA-N 23.2 µM | Malme-3M 27.7 µM | NCI-H460 27.6 µM | NCI-H522 27.7 µM | OVCAR-3 45.9 µM | OVCAR-5 57.8 µM | RPMI-8226 15.5 µM | SK-MEL-28 42.5 µM | SK-MEL-2 29.6 µM | SK-OV-3 > 100 µM | SR 13.5 µM | UACC-62 30.3 µM

O=C1C2CC=CCC2C(=O)N1n1c(Cc2ccc(Cl)cc2)n[nH]c1=O (stereo unspecified)
inactive: BT-549 > 100 µM | CCRF-CEM > 100 µM | COLO 205 > 100 µM | EKVX > 100 µM | HOP-62 > 100 µM | HOP-92 > 100 µM | K562 > 100 µM | MDA-N > 100 µM | Malme-3M > 100 µM | NCI-H226 > 100 µM | NCI-H522 > 100 µM | OVCAR-3 > 100 µM | OVCAR-5 > 100 µM | RPMI-8226 > 100 µM | SK-MEL-28 > 100 µM | SK-MEL-2 > 100 µM | SK-OV-3 > 100 µM | SR > 100 µM | UACC-62 > 100 µM

OC[C@H]1CC(c2nn[nH]n2)[C@H](O)[C@@H]1O (stereo partly specified)
inactive: BT-549 > 100 µM | CCRF-CEM > 100 µM | COLO 205 > 100 µM | HOP-62 > 100 µM | HOP-92 > 100 µM | K562 > 100 µM | MDA-N > 100 µM | Malme-3M > 100 µM | NCI-H226 > 100 µM | NCI-H460 > 100 µM | NCI-H522 > 100 µM | OVCAR-3 > 100 µM | OVCAR-5 > 100 µM | RPMI-8226 > 100 µM | SK-MEL-28 > 100 µM | SK-OV-3 > 100 µM | SR > 100 µM | UACC-62 > 10 µM

COc1ccc2c(c1)OCC1(O)Cc3ccccc3OC21 (stereo unspecified)
inactive: BT-549 > 100 µM | CCRF-CEM > 100 µM | COLO 205 > 100 µM | EKVX > 100 µM | HOP-62 > 100 µM | HOP-92 > 100 µM | K562 > 100 µM | MDA-N > 100 µM | Malme-3M > 100 µM | NCI-H226 > 100 µM | NCI-H522 > 100 µM | OVCAR-3 > 100 µM | OVCAR-5 > 100 µM | RPMI-8226 > 100 µM | SK-MEL-2 > 100 µM | SK-OV-3 > 100 µM | SR > 100 µM | UACC-62 > 100 µM

COc1ccc(-n2cnc3c(NC(CCSC)C(=O)O)ncnc32)cc1 (stereo unspecified)
inactive: BT-549 > 100 µM | CCRF-CEM > 100 µM | COLO 205 > 100 µM | EKVX > 100 µM | HOP-62 > 100 µM | HOP-92 74.1 µM | K562 > 100 µM | MDA-N > 100 µM | NCI-H226 > 100 µM | NCI-H460 > 100 µM | NCI-H522 > 100 µM | OVCAR-3 > 100 µM | OVCAR-5 > 100 µM | RPMI-8226 > 100 µM | SK-MEL-28 > 100 µM | SK-MEL-2 > 100 µM | SK-OV-3 > 100 µM | SR > 100 µM | UACC-62 > 100 µM

Cc1ccc(-c2n[nH]c(=O)n2NC(=O)c2ccccc2C(=O)O)cc1
inactive: BT-549 > 100 µM | HOP-62 > 100 µM | HOP-92 > 100 µM | K562 > 100 µM | MDA-N > 100 µM | Malme-3M > 100 µM | NCI-H226 > 100 µM | NCI-H460 > 100 µM | NCI-H522 > 100 µM | OVCAR-3 > 100 µM | RPMI-8226 > 100 µM | SK-MEL-28 > 100 µM | SK-MEL-2 > 100 µM | SR > 100 µM | UACC-62 > 100 µM
